The source of these data is publication PMC5708365, “Histone lysine methyltransferase structure activity relationships that allow for segregation of G9a inhibition and anti-Plasmodium activity” (MedChemComm, 2017).

The assay deals with T1, G9a (Homo sapiens, UniProt Q96KQ7).
T1 sequence (Q96KQ7 1-1210): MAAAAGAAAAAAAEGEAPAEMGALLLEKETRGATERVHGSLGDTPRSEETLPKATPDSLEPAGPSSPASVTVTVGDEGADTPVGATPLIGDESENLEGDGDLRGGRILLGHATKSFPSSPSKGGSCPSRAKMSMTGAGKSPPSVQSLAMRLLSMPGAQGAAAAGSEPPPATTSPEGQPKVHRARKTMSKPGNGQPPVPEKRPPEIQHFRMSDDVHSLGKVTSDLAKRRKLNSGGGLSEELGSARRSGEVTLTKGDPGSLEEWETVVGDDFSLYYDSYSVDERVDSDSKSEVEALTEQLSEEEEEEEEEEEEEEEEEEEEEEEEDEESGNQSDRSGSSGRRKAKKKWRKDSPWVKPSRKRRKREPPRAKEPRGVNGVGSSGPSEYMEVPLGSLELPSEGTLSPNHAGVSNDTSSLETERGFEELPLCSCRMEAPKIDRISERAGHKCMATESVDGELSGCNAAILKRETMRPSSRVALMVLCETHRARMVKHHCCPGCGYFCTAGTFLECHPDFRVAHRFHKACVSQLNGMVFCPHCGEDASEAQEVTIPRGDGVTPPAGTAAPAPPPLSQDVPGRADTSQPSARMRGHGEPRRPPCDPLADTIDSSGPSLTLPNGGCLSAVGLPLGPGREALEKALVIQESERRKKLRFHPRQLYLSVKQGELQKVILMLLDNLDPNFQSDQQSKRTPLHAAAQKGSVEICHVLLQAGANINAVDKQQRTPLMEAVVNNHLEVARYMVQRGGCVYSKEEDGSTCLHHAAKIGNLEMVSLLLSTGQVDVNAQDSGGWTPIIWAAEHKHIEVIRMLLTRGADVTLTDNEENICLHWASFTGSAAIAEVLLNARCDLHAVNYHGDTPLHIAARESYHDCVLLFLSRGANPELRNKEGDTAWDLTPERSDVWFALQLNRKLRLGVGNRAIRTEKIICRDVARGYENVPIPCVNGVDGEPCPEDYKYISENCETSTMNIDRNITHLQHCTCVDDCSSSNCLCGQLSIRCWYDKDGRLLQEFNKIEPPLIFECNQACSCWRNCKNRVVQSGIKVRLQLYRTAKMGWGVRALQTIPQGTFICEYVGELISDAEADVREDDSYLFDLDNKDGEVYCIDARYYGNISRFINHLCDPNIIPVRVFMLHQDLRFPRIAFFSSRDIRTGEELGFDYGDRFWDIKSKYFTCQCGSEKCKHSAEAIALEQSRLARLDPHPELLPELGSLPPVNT
Particulars: SPA, 5 nM G9a, H3 1-25 peptide 0.8 μM, 3H-SAM 8 μM; for IC50: read-out: G9a IC50.

Each structure is given as a SMILES string. Some results are limits rather than exact numbers.

As a reminder, the IC50 is the concentration at which inhibition is half-maximal. For `COc1cc2nc(N3CCN(C)CC3)cc(NC3CCN(C)CC3)c2cc1OC` [compound 91, 6,7-Dimethoxy-2-(4-methylpiperazin-1-yl)-N-(1-methylpiperidin-4-yl)quinolin-4-amine], the half-inhibitory concentration (IC50) is 30 nM.
Consider `COc1cc2c(NC3CCN(Cc4ccccc4)CC3)nc(N3CCCN(C)CC3)nc2cc1OCCCN(C)C` [compound 69], for which the 50% inhibitory concentration (IC50) is less than 3 nM.
On the same count and under the same terms, as for `COc1cc2nc(N3CCCCC3)nc(NC3CCN(Cc4ccccc4C)CC3)c2cc1OC` [compound 27], the figure is approximately 1000 nM; as for `COc1cc2nc(N3CCCCC3)nc(NC3CCCN(Cc4ccccc4)C3)c2cc1OC` (centres unmarked) [compound 31], approximately 1000 nM.
Still for that read-out and setting: as for `COc1cc2nc(N3CCC(C)CC3)nc(NC3CCN(Cc4ccccc4)CC3)c2cc1OC` [compound 11], the figure is 1330 nM; as for `COc1cc2nc(N3CC(C)CC(C)C3)nc(Nc3ccccc3)c2cc1OC` (centres unmarked) [compound 59], more than 10000 nM.
On to `COc1cc2nc(N3CCCCC3)nc(NC3CCN(Cc4ccc(C)cc4)CC3)c2cc1OC` [compound 26], for which the half-maximal inhibitory concentration (IC50) was 690 nM.
In the case of `COc1cc2nc(N3CCCCC3)nc(NC3CCN(Cc4cccc(F)c4)CC3)c2cc1OC` [compound 29], the IC50 is approximately 1000 nM.
As to `COc1cc2nc(N3CCC(N(C)C)CC3)nc(NC3CCN(Cc4ccccc4)CC3)c2cc1OC` [compound 13], the concentration for half-maximal inhibition (IC50) was 506 nM.
For `COc1cc2c(NC3CCN(Cc4ccccc4)CC3)nc(N3CCN(C)CC3)nc2cc1OCCCCSC` [compound 84], the concentration for half-maximal inhibition (IC50) is 575 nM.
The same measure, in the same setting: next, `COc1cc2nc(N3CCN(c4ccccn4)CC3)nc(NC3CCN(C)CC3)c2cc1OC` [compound 41]: more than 1000 nM; `COc1cc2nc(N3CC(C)CC(C)C3)nc(NC3CCN(C(C)=O)CC3)c2cc1OC` (centres unmarked) [compound 37]: more than 1000 nM.
With `COc1cc2nc(N3CCN(C)CC3)nc(NC3CCN(Cc4ccccc4F)CC3)c2cc1OC` [compound 23], the 50% inhibitory concentration (IC50) was 116 nM.
Take `COc1cc2nc(N3CCC(c4ccccc4)CC3)nc(NC3CCN(Cc4ccccc4)CC3)c2cc1OC` [compound 16]: the IC50 was more than 10000 nM.
Regarding `COc1cc2nc(N3CCCCCC3)nc(NC3CCN(Cc4ccccc4)CC3)c2cc1OC` [compound 9], the half-inhibitory concentration (IC50) stood at 332 nM.
With `COc1cc2nc(N3CCCCC3)nc(NC3CCN(C(C)C)CC3)c2cc1OC` [compound 54], the IC50 was 319 nM.
With `COc1cc2nc(N3CCCCC3)nc(Nc3ccccc3)c2cc1OC` [compound 58], the IC50 was more than 10000 nM.
The same measure, in the same setting: next, `CCCCCCOc1cc2nc(N3CCN(C)CC3)nc(NC3CCN(Cc4ccccc4)CC3)c2cc1OC` [compound 77]: 114 nM; `COc1cc2nc(N3CCN(C)CC3)nc(NC3CCN(Cc4ccccc4C)CC3)c2cc1OC` [compound 20]: 169 nM; `CCCCCCOc1cc2nc(NCCCN(C)C)nc(NC3CCN(Cc4ccccc4)CC3)c2cc1OC` [compound 75]: 39 nM.
Regarding `COc1cc2nc(N3CCN(C)CC3)nc(NC3CCN(Cc4ccc(F)cc4)CC3)c2cc1OC` [compound 21], the concentration for half-maximal inhibition (IC50) was 112 nM.
Consider `COc1cc2nc(N3CCN(c4ccccn4)CC3)nc(NC3CCN(Cc4ccccc4)C3)c2cc1OC` (centres unmarked) [compound 34], for which the half-maximal inhibitory concentration (IC50) was approximately 10000 nM.
In the case of `COc1cc2cc(N3CCC(OC)CC3)nc(NC3CCN(Cc4ccccc4)CC3)c2cc1OC` [compound 86, N-(1-Benzylpiperidin-4-yl)-6,7-dimethoxy-3-(4-methoxypiperidin-1-yl)isoquinolin-1-amine], the IC50 is more than 50000 nM.
As for `COc1cc2nc(N3CC(C)CC(C)C3)nc(NC3CCN(Cc4ccccc4)CC3)c2cc1OC` (centres unmarked) [compound 14], the “G9a IC50” value was “inactive against G9a” and the IC50 was approximately 10000 nM.
Consider `COc1cc2nc(N3CCN(C)CC3)nc(Nc3ccccc3)c2cc1OC` [compound 57], for which the 50% inhibitory concentration (IC50) is more than 10000 nM.
Take `COc1cc2nc(N3CCCN(C)CC3)nc(NC3CCN(C(C)C)CC3)c2cc1OC` [compound 51]: the IC50 was determined as 55 nM.
As to `COc1cc2nc(N3CCC(OC)CC3)nc(NC3CCN(Cc4ccccc4)CC3)c2cc1OC` [compound 12], the IC50 came to 576 nM.
For `COc1cc2c(NC3CCN(C)CC3)nc(N3CCCN(C)CC3)nc2cc1OCc1ccccc1` [compound 60], the “G9a IC50” value was “complete loss of G9a activity” and the IC50 is more than 1000 nM.
In the case of `COc1cc2c(NC3CCN(Cc4ccccc4)CC3)nc(N3CCN(C)CC3)nc2cc1OCCC(C)C` [compound 81], the concentration for half-maximal inhibition (IC50) stood at 5340 nM.
As for `COc1cc2nc(N3CCN(C)CC3)nc(NC3CCCCC3)c2cc1OC` [compound 55], the IC50 came to 6440 nM.
Turning to `COc1cc2nc(N3CCN(C)CC3)nc(NC3CCN(Cc4cccc(C)c4)CC3)c2cc1OC` [compound 18], the IC50 is 116 nM.
For `COc1cc2nc(N3CCN(C)CC3)nc(NC3CCN(Cc4cccc(F)c4)CC3)c2cc1OC` [compound 22], the concentration for half-maximal inhibition (IC50) was 132 nM.
As to `COc1cc2nc(N3CCN(c4ccccn4)CC3)nc(NC3CCN(C(=O)c4ccccc4)CC3)c2cc1OC` [compound 35], the 50% inhibitory concentration (IC50) is more than 10000 nM.
Take `COc1cc2nc(N3CCCCC3)nc(NC3CCN(C(=O)c4ccccc4)CC3)c2cc1OC` [compound 36]: the IC50 is more than 10000 nM.
For `CCCCCCCCOc1cc2nc(N3CCCN(C)CC3)nc(NC3CCN(Cc4ccccc4)CC3)c2cc1OC` [compound 73], the IC50 came to 211 nM.
The same measure, in the same setting: as for `COc1cc2nc(N3CCCN(C)CC3)nc(NC3CCN(C4CCCCC4)CC3)c2cc1OC` [compound 48], the figure is 55 nM; as for `COc1cc2nc(N3CCN(C)CC3)nc(NC3CCN(Cc4ccc(C)cc4)CC3)c2cc1OC` [compound 19], 78 nM; as for `COc1cc2c(NC3CCN(Cc4ccccc4)CC3)nc(N3CCN(C)CC3)nc2cc1OCCCN(C)C` [compound 70], 8 nM.
For `COc1cc2c(NC3CCN(Cc4ccccc4)CC3)nc(N3CCN(C)CC3)nc2cc1OCc1ccccc1` [compound 61], the “G9a IC50” value is “virtually no G9a inhibition” and the half-inhibitory concentration (IC50) was approximately 10000 nM.
Take `COc1cc2nc(N3CCCCC3)nc(NC3CCN(CC4CCCCC4)CC3)c2cc1OC` [compound 46]: the IC50 amounted to 295 nM.
For `COc1cc2cc(N3CCCCC3)nc(NC3CCN(Cc4ccccc4)CC3)c2cc1OC` [compound 87, N-(1-Benzylpiperidin-4-yl)-6,7-dimethoxy-3-(piperidin-1-yl)isoquinolin-1-amine], the IC50 was more than 25000 nM.
As for `CCCCCCCCOc1cc2nc(N3CCN(C)CC3)nc(NC3CCN(Cc4ccccc4)CC3)c2cc1OC` [compound 76], the concentration for half-maximal inhibition (IC50) stood at 1020 nM.
`CCCCOc1cc2nc(N3CCN(C)CC3)nc(NC3CCN(C(C)C)CC3)c2cc1OC` [compound 80]: the 50% inhibitory concentration (IC50) is 843 nM.
In the case of `COc1cc2nc(N3CCN(C)CC3)nc(NC3CCN(CC4CCCCC4)CC3)c2cc1OC` [compound 45], the half-maximal inhibitory concentration (IC50) turned out to be 25 nM.
In the case of `COc1cc2c(NC3CCN(Cc4ccccc4)CC3)nc(N3CCCCC3)nc2cc1OCc1ccccc1` [compound 62], the “G9a IC50” value is given as “virtually no G9a inhibition” and the concentration for half-maximal inhibition (IC50) was more than 50000 nM.
In the case of `COc1cc2nc(N3CCCCC3)nc(NC3CCN(Cc4ccccc4)C3)c2cc1OC` (centres unmarked) [compound 33], the IC50 came to 830 nM.
Regarding `COc1cc2nc(N3CCCN(C)CC3)nc(NC3CCN(CC4CCCCC4)CC3)c2cc1OC` [compound 44], the half-maximal inhibitory concentration (IC50) is 10 nM.
On the same count and under the same terms, as for `COc1cc2c(NC3CCN(C(C)C)CC3)nc(N3CCN(C)CC3)nc2cc1OCCCN1CCCCC1` [compound 68], the figure is 4 nM.
`COc1cc2nc(N3CCCCC3)nc(NC3CCN(Cc4cccc(C)c4)CC3)c2cc1OC` [compound 25]: the 50% inhibitory concentration (IC50) was 869 nM.
As to `CCCCCOc1cc2nc(N3CCN(C)CC3)nc(NC3CCN(Cc4ccccc4)CC3)c2cc1OC` [compound 78], the IC50 was approximately 1000 nM.
On to `COc1cc2nc(N3CCN(C)CC3)nc(NC3CCN(C(C)C)CC3)c2cc1OC` [compound 52], for which the IC50 amounted to 123 nM.
On the same count and under the same terms, as for `COc1cc2c(NC3CCN(C(C)C)CC3)nc(N3CCN(C)CC3)nc2cc1OCCC(C)C` [compound 82], the figure is 2030 nM.
For `COc1cccc(CN2CCC(Nc3nc(N4CCN(C)CC4)nc4cc(OC)c(OC)cc34)CC2)c1` [compound 24], the IC50 is 128 nM.
`COc1cc2c(NC3CCN(Cc4ccccc4)CC3)nc(N3CCN(C)CC3)nc2cc1OCCCSC` [compound 83]: the concentration for half-maximal inhibition (IC50) was determined as 223 nM.
As to `CCCCCCOc1cc2nc(N3CCCN(C)CC3)nc(NC3CCN(Cc4ccccc4)CC3)c2cc1OC` [compound 74], the half-inhibitory concentration (IC50) stood at 39 nM.
